Assay [1] is described as follows: Briefly, various concentrations (1-to-3 series dilutions for 10 concentration levels from 40 μM with 0.5% final DMSO concentration) of hPXR agonist rifampicin, various concentrations of tested chemicals alone or combined with 5 μM of rifampicin, were added to the wells of white 384-well tissue culture-treated plates with 5,000 cells in 25 μl of phenol red-free DMEM supplemented with 5% charcoal/dextran-treated FBS and incubated for 24 h at 37° C. before luciferase assay using Steadylite HTS (PerkinElmer Life Sciences). In kind it is cell-based. The note with it: HepG2.

Regarding `COc1ccc(OC)c(-c2nc(C)c(C(=O)c3ccc(C(C)(C)C)cc3)n2C)c1`, the IC50 is 0.79 µM. Also, the IC50 in assay [1] came to 3.1 µM.

The record behind these values is ChEMBL document CHEMBL5728323, “1,4,5-substituted 1,2,3-triazole analogues as antagonists of the pregnane X receptor” (2021).
